Laboratory results: patent US7897340B2, “Use of tumor susceptibilty gene 101 (TSG 101) as a prognostic and diagnostic marker” (The Board of Regents of the University of Texas System, priority 2006, dated 2011)

Columns and labels:
Type in all cases: cell-based, human
SKOV-3 cells = assay: Cell viability MTT assay; conditions: SKOV-3, days 3 to 7 post transfection, vs scrambled control siRNA
Source text: A siRNA duplex specific for TSG101 (targeting TSG101 coding sequence 413-433) and a scrambled random control siRNA with matching GC content were obtained from Dharmacon. This specific TSG101 siRNA duplex (sense: CCUCCAGUCUUCUCUCGUCdTdT (SEQ ID NO: 7) and antisense: dTd[…] (SEQ ID NO: 8) have been successfully applied to suppress the expression of endogenous TSG101 in several high quality studies (Amit et al., 2004; Garrus et al., 2001; Hewitt et al., 2002; Ismaili et al., 2005). Transfection of the siRNAs was according to the manufacturer's instructions using Lipofectamine 2000 (Invitrogen).
SKOV-3 cells were trypsinized 48 hrs post-transfection with siRNAs and plated at 2×10^3 cells/well in 96 well plates, with 5 wells for each treatment. On subsequent days (days 3 to 7), media was removed and 100 μl/well fresh media was added along with 10 μl of 3-(4,5-dimethylthiazol-2-yl)-2,5-diphenyl tetrazolium bromide (MTT) to a final concentration of 500 μg/ml. Cells were incubated for 3 hrs at 37° C., and then lysed by adding 200 μl/well DMSO and incubating at 37° C. for 1 hr. Cell viability was measured by reduction of MTT, which registered absorbance at 595 nm on a Molecular Devices microplate reader.

caspase 3 = assay: Caspase activity assay; conditions: SKOV-3 lysates, 6 days following transfection
Method: SKOV-3 cells transfected with either control or TSG101 siRNA were grown in 10 cm plates to 70-80% confluence, then harvested by trypsinization, washed twice in PBS and once in wash buffer (100 mM HEPES pH 7.4, 0.5 mM EDTA, 1 mM DTT, 0.1 mM PMSF, 2 μg/ml leupeptin, 2 μg/ml pepstatin). The cells were lysed on ice for 30 min with frequent vortexing in 150 μl of lysis buffer (wash buffer plus 1% Triton-X100). Cell debris was removed by centrifugation at 16,000 g for 20 min at 4° C. Lysate protein concentration was determined by Bradford assay (Bio-Rad). Caspase 3 activity was measured using fluorogenic substrates […] that is specific for caspase 3. Release of free AFC was monitored using a Fluoroskan fluorescence microplate reader with excitation and emission set to 405 and 510 nm, correspondingly.

[1] = tested on: TSG101 recruitment to the p21 promoter; assay: Chromatin immunoprecipitation (ChIP) assay with TSG101 antibody; conditions: SKOV-3, ChIP with TSG101 antibody, vs control siRNA
Source text: Pelleted DNA was resuspended in TBE. […] ID NO: 11), reverse [NT] ID NO:12).

TSG101 siRNA: siRNA duplex from Dharmacon targeting TSG101 coding sequence 413-433, SEQ ID NO: 7 and 8 (chain 1 CCUCCAGUCUUCUCUCGUCTT; chain 2 TTGGAGGUCAGAAGAGAGCAG; chemistry not fully specified; one strand is listed 3' to 5')
cell viability (MTT) (SKOV-3 cells): decrease dramatically in number beginning 5 days post transfection
caspase 3 activity (caspase 3): apparent increases
recruitment of TSG101 to the p21 promoter [1]: dramatically reduced
